Converted amounts (≈) assume the structure as drawn.

The test system of the first test is HeLa S-3 cells. As to the kind of experiment: HeLa S-3 cell growth inhibition test. The test is classed as cell-based. The note with it: Homo sapiens, 96 h, read-out: minimum growth inhibition concentration (MIC). The protocol:
(a) HeLa S-3 Cell Growth Inhibition Test
A test compound was appropriately diluted with a liquid medium (a minimum essential medium containing a 10% fecal calf serum). The resulting liquid was poured into each well of a 96-well micro titer plate, in an amount of 0.1 ml/well. Then, HeLa S-3 cells were diluted with the same liquid medium so that the cell concentration became 2×10^4 cells/ml, and the resulting liquid was poured into each well of the above plate in an amount of 0.1 ml/well. The resulting plate was allowed to stand in a CO2 gas incubator of 37° C. for 4 days, to effect incubation. After the incubation, the supernatant liquid in each well was removed and fixation by ethanol was effected for 10 minutes. The fixed cells were tinted with a Giemsa's staining solution to determine the minimum growth inhibition concentration (MIC) of test compound for HeLa S-3 cells.
As to `Cc1cc2c(c3c1[nH]c1ccc(OC(=O)N4CCCCC4)cc13)C(=O)N(CCN(C)C)C2=O` [compound 44], the MIC was 0.8 µg/mL (≈ 1.78 µM). On the same count and under the same terms, the same measure for `Cc1cc2c(c3c1[nH]c1ccc(OC(=O)N4CCOCC4)cc13)C(=O)N(CCN(C)C)C2=O` [compound 50]: 3.13 µg/mL (≈ 6.95 µM); for `Cc1cc2c(c3c1[nH]c1ccc(OC(=O)N4CCC(N5CCCCC5)CC4)cc13)C(=O)N(CCN(C)C)C2=O` [compound 55]: 2.5 µg/mL (≈ 4.7 µM); for `Cc1c2c(c3c([nH]c4ccc(OC(=O)N5CCC(N6CCCCC6)CC5)cc43)c1C)C(=O)N(CCN(C)C)C2=O` [compound 75]: 0.08 µg/mL (≈ 0.147 µM).

The same test, now with this note: Homo sapiens, 96 h; HeLa S-3 cells, 37° C., 4 days, Giemsa's staining; read-out: minimum growth inhibition concentration (MIC).
On to `CCc1cc2[nH]c3ccccc3c2c2c1C(=O)N(CCN(C)C)C2=O` [compound 4], for which the MIC was found to be 0.2 µg/mL (≈ 0.596 µM). Consider `Cc1c2c(c3c([nH]c4ccccc43)c1C)C(=O)N(CCN(C)C)C2=O` [compound 5], for which the MIC is 0.125 µg/mL (≈ 0.373 µM).

As to `Cc1cc2c(c3c4ccccc4n(C)c13)C(=O)N(CCN(C)C)C2=O` [compound 6], the MIC stood at 0.8 µg/mL (≈ 2.39 µM). On the same count and under the same terms, the same measure for `CN(C)CCN1C(=O)c2cc(-c3ccccc3)c3[nH]c4ccccc4c3c2C1=O` [compound 7]: 0.8 µg/mL (≈ 2.09 µM); for `CN(C)CCN1C(=O)c2ccc3[nH]c4cc(Cl)ccc4c3c2C1=O` [compound 8]: 3.13 µg/mL (≈ 9.16 µM); for `CN(C)CCN1C(=O)c2ccc3c(c2C1=O)c1cc(Cl)ccc1n3C` [compound 10]: 0.8 µg/mL (≈ 2.25 µM). Still for that read-out and setting: the same measure for `CN(C)CCN1C(=O)c2ccc3[nH]c4ccc(F)cc4c3c2C1=O` [compound 11]: 3.13 µg/mL (≈ 9.62 µM). Same read-out and setting: next, `Cc1ccc2[nH]c3ccc4c(c3c2c1)C(=O)N(CCN(C)C)C4=O` [compound 12]: 3.13 µg/mL (≈ 9.74 µM); `COc1cccc2c1[nH]c1ccc3c(c12)C(=O)N(CCN(C)C)C3=O` [compound 13]: 3.13 µg/mL (≈ 9.28 µM).

As to `COc1ccc2c(c1)[nH]c1ccc3c(c12)C(=O)N(CCN(C)C)C3=O` [compound 14], the MIC turned out to be 1.56 µg/mL (≈ 4.62 µM). The same measure, in the same setting: next, `COc1ccc2[nH]c3c(C)cc4c(c3c2c1)C(=O)N(CCN(C)C)C4=O` [compound 16]: 0.2 µg/mL (≈ 0.569 µM); `COc1ccc2c(c1)[nH]c1c(C)cc3c(c12)C(=O)N(CCN(C)C)C3=O` [compound 18]: 0.8 µg/mL (≈ 2.28 µM). Regarding `COc1ccc2c(c1)c1c3c(ccc1n2C)C(=O)N(CCN(C)C)C3=O` [compound 19], the MIC was 0.4 µg/mL (≈ 1.14 µM).

Take `CCn1c2ccc(OC)cc2c2c3c(ccc21)C(=O)N(CCN(C)C)C3=O` [compound 20]: the MIC came out at 1.56 µg/mL (≈ 4.27 µM). For `COc1ccc2c(c1)c1c3c(ccc1n2C(C)=O)C(=O)N(CCN(C)C)C3=O` [compound 21], the MIC came out at 3.13 µg/mL (≈ 8.25 µM). Same read-out and setting: the same measure for `Cc1cc2[nH]c3ccc(O)cc3c2c2c1C(=O)N(CCN(C)C)C2=O` [compound 25]: 0.04 µg/mL (≈ 0.119 µM); for `Cc1c2c(c3c([nH]c4ccc(O)cc43)c1C)C(=O)N(CCN(C)C)C2=O` [compound 26]: 0.016 µg/mL (≈ 0.0455 µM); for `CCn1c2ccc(O)cc2c2c3c(ccc21)C(=O)N(CCN(C)C)C3=O` [compound 29]: 3.13 µg/mL (≈ 8.91 µM).

For the molecule `O=C1c2ccc3[nH]c4ccc(O)cc4c3c2C(=O)N1CCN1CCCCC1` [compound 33], the MIC came to 3.13 µg/mL (≈ 8.61 µM). On to `COc1ccc2[nH]c3ccc4c(c3c2c1)C(=O)N(CCN1CCN(C)CC1)C4=O` [compound 34], for which the MIC is 3.13 µg/mL (≈ 7.98 µM). On the same count and under the same terms, the same measure for `CN(C)CCN1C(=O)c2c(O)cc3[nH]c4ccc(O)cc4c3c2C1=O` [compound 35]: 2 µg/mL (≈ 5.89 µM); for `COc1ccc2[nH]c3cc(OC)c4c(c3c2c1)C(=O)N(CCN(C)C)C4=O` [compound 36]: 0.8 µg/mL (≈ 2.18 µM); for `COc1cc2c(c3c1[nH]c1ccc(OCc4ccccc4)cc13)C(=O)N(CCN(C)C)C2=O` [compound 37]: 0.2 µg/mL (≈ 0.451 µM). As for `COc1ccc2[nH]c3c(OC)cc4c(c3c2c1)C(=O)N(CCN(C)C)C4=O` [compound 40], the MIC was determined as 0.2 µg/mL (≈ 0.544 µM). With `CN(C)CCN1C(=O)c2cc(O)c3[nH]c4ccc(O)cc4c3c2C1=O` [compound 41], the MIC stood at 0.8 µg/mL (≈ 2.36 µM). The same measure, in the same setting: the same measure for `Cc1cc2c(c3c1oc1ccccc13)C(=O)N(CCN(C)C)C2=O` [compound 43]: 2.5 µg/mL (≈ 7.76 µM). Same read-out and setting: next, `CC(=O)Oc1ccc2[nH]c3c(C)cc4c(c3c2c1)C(=O)N(CCN(C)C)C4=O` [compound 45]: 0.16 µg/mL (≈ 0.422 µM).

With `Cc1cc(O)cc2c1[nH]c1ccc3c(c12)C(=O)N(CCN(C)C)C3=O` [compound 46], the MIC worked out at 3.13 µg/mL (≈ 9.28 µM). The same measure, in the same setting: next, `Cc1cc2c(c3c1sc1ccccc13)C(=O)N(CCN(C)C)C2=O` [compound 47]: 0.2 µg/mL (≈ 0.591 µM); `Cc1cc2c(c3c1S(=O)(=O)c1ccccc1-3)C(=O)N(CCN(C)C)C2=O` [compound 48]: 2.5 µg/mL (≈ 6.75 µM); `CCCc1cc2c(c3c1[nH]c1ccc(O)cc13)C(=O)N(CCN(C)C)C2=O` [compound 51]: 0.2 µg/mL (≈ 0.547 µM). With `CC(C)c1cc2c(c3c1[nH]c1ccc(O)cc13)C(=O)N(CCN(C)C)C2=O` [compound 52], the MIC was determined as 0.4 µg/mL (≈ 1.09 µM). Same read-out and setting: next, `Cc1cc2c(c3c1[nH]c1ccc(O)cc13)C(=O)N(CCN(C(C)C)C(C)C)C2=O` [compound 53]: 0.8 µg/mL (≈ 2.03 µM); `CN(C)CCN1C(=O)c2cc(C(C)(C)C)c3[nH]c4ccc(O)cc4c3c2C1=O` [compound 54]: 0.31 µg/mL (≈ 0.817 µM); `COc1ccc2sc3c(C)cc4c(c3c2c1)C(=O)N(CCN(C)C)C4=O` [compound 56]: 0.4 µg/mL (≈ 1.09 µM). Still for that read-out and setting: next, `COCc1cc2c(c3c1[nH]c1ccc(O)cc13)C(=O)N(CCN(C)C)C2=O` [compound 57]: 1 µg/mL (≈ 2.72 µM). The same measure, in the same setting: next, `COc1ccc2[nH]c3c(C4CCC4)cc4c(c3c2c1)C(=O)N(CCN(C)C)C4=O` [compound 58]: 1.25 µg/mL (≈ 3.19 µM); `CCCCc1cc2c(c3c1[nH]c1ccc(O)cc13)C(=O)N(CCN(C)C)C2=O` [compound 60]: 0.1 µg/mL (≈ 0.264 µM); `CCN(CC)CCN1C(=O)c2cc(C)c3sc4ccc(O)cc4c3c2C1=O` [compound 62]: 0.2 µg/mL (≈ 0.523 µM).

As for `CN(C)CCN1C(=O)c2cc(C3CCCCC3)c3[nH]c4ccc(O)cc4c3c2C1=O` [compound 63], the MIC was 1.25 µg/mL (≈ 3.08 µM). Still for that read-out and setting: next, `CNCCN1C(=O)c2cc(C)c3[nH]c4ccc(OC)cc4c3c2C1=O` [compound 64]: 0.63 µg/mL (≈ 1.87 µM); `COc1ccc2[nH]c3c(C)cc4c(c3c2c1)C(=O)N(CCN)C4=O` [compound 65]: 0.63 µg/mL (≈ 1.95 µM); `CN(C)CCN1C(=O)c2ccc3sc4ccccc4c3c2C1=O` [compound 66]: 2.5 µg/mL (≈ 7.71 µM). Consider `CN(C)CCN1C(=O)c2cc(C(F)(F)F)c3[nH]c4ccc(O)cc4c3c2C1=O` [compound 67], for which the MIC was 2 µg/mL (≈ 5.11 µM).

In the case of `Cc1cc2c(c3c1[nH]c1ccc(O)cc13)C(=O)N(CCN)C2=O` [compound 68], the MIC is 0.4 µg/mL (≈ 1.29 µM). On to `CN(C)CCN1C(=O)c2cc(C3CCCC3)c3[nH]c4ccc(O)cc4c3c2C1=O` [compound 72], for which the MIC worked out at 0.16 µg/mL (≈ 0.409 µM). As for `CN(C)CCN1C(=O)c2cc(C3(C)CC3)c3[nH]c4ccc(O)cc4c3c2C1=O` [compound 73], the MIC came out at 0.8 µg/mL (≈ 2.12 µM). Same read-out and setting: next, `Cc1cc2c(c3c1[nH]c1ccc(O)cc13)C(=O)N(CCNC(C)C)C2=O` [compound 76]: 0.16 µg/mL (≈ 0.455 µM); `CSc1cc2c(c3c1[nH]c1ccc(O)cc13)C(=O)N(CCN(C)C)C2=O` [compound 77]: 0.63 µg/mL (≈ 1.71 µM); `CN(C)CCN1C(=O)c2cc(Oc3ccccc3)c3[nH]c4ccc(O)cc4c3c2C1=O` [compound 78]: 0.04 µg/mL (≈ 0.0963 µM). On the same count and under the same terms, the same measure for `COc1ccc2[nH]c3c(-c4ccc(F)cc4F)cc4c(c3c2c1)C(=O)N(CCN(C)C)C4=O` [compound 79]: 1.6 µg/mL (≈ 3.56 µM); for `CCOc1cc2c(c3c1[nH]c1ccc(O)cc13)C(=O)N(CCN(C)C)C2=O` [compound 80]: 0.08 µg/mL (≈ 0.218 µM). On the same count and under the same terms, the same measure for `CCN(C)CCN1C(=O)c2cc(C)c3[nH]c4ccc(O)cc4c3c2C1=O` [compound 81]: 0.16 µg/mL (≈ 0.455 µM); for `COc1ccc2[nH]c3c(C)cc4c(c3c2c1)C(=O)N(CCNCCO)C4=O` [compound 82]: 0.4 µg/mL (≈ 1.09 µM). `Cc1cc2c(c3c1[nH]c1ccc(OC(=O)c4ccncc4)cc13)C(=O)N(CCN(C)C)C2=O` [compound 83]: the MIC was found to be 0.16 µg/mL (≈ 0.362 µM). Same read-out and setting: the same measure for `CN(C)CCN1C(=O)c2c(-c3ccncc3)cc3[nH]c4ccc(O)cc4c3c2C1=O` [compound 84]: 2.5 µg/mL (≈ 6.24 µM).

Consider `COc1ccc(Oc2cc3c(c4c2[nH]c2ccc(O)cc24)C(=O)N(CCN(C)C)C3=O)cc1` [compound 85], for which the MIC stood at 0.08 µg/mL (≈ 0.18 µM). The same measure, in the same setting: next, `CN(C)CCN1C(=O)c2cc(Oc3ccc(O)cc3)c3[nH]c4ccc(O)cc4c3c2C1=O` [compound 86]: 0.16 µg/mL (≈ 0.371 µM); `COc1ccc2[nH]c3c(C)cc4c(c3c2c1)C(=O)N(CCN1CCOCC1)C4=O` [compound 87]: 5 µg/mL (≈ 12.7 µM); `Cc1cc2c(c3c1[nH]c1ccc(O)cc13)C(=O)N(CCN1CCOCC1)C2=O` [compound 88]: 2.5 µg/mL (≈ 6.59 µM). On the same count and under the same terms, the same measure for `CCN(CC)CCN1C(=O)c2cc(Oc3ccccc3)c3[nH]c4ccc(O)cc4c3c2C1=O` [compound 89]: 0.16 µg/mL (≈ 0.361 µM); for `Cc1cc2c(c3c1[nH]c1ccc(O)cc13)C(=O)N(CCN1CCN(C)CC1)C2=O` [compound 90]: 1.56 µg/mL (≈ 3.97 µM). With `Cc1cc2c(c3c1[nH]c1ccc(O)cc13)C(=O)N(CCN(CCO)CCO)C2=O` [compound 91], the MIC turned out to be 1.25 µg/mL (≈ 3.15 µM). Take `C=Cc1cc2c(c3c1[nH]c1ccc(OC)cc13)C(=O)N(CCN(C)C)C2=O` [compound 92]: the MIC came out at 0.32 µg/mL (≈ 0.881 µM). On the same count and under the same terms, next, `COc1cc2c(cc1Br)[nH]c1c(CN(C)C)cc3c(c12)C(=O)N(CCN(C)C)C3=O` [compound 93]: 3.2 µg/mL (≈ 6.76 µM); `Cc1cc2c(c3c1[nH]c1ccc(O)cc13)C(=O)N(CC[N+](C)(C)C)C2=O` [compound 94]: 6.25 µg/mL; `CNC(=O)n1c2ccc(O)cc2c2c3c(cc(C)c21)C(=O)N(CCN(C)C)C3=O` [compound 95]: 1.56 µg/mL (≈ 3.96 µM).

(Values after patent US5166204A, “Isoindole derivatives and salts thereof and antitumor agent comprising the same” (Toyama Chemical Co., Ltd., priority 1989, dated 1992).)
